For 21 compounds, IC50 results are on record in US11274100B2, “EP300/CREBBP inhibitor” (Daiichi Sankyo Company, Limited, priority 2017, dated 2022).

One assay relates to H3K27Ac. In words: Intracellular H3K27Ac inhibitory activity in LK2 cells (Test Example 2). In kind it is cell-based. Particulars: Homo sapiens, LK-2, cultured with compound for 3 hours, read-out: Test Example 2 H3K27Ac Inhibition (LK2) IC50. The protocol: [Test Example 2] Evaluation of Intracellular H3K27Ac Inhibitory Activity
LK2 cells derived from human squamous cell lung cancer were seeded in a 96 well plate at 40000 cells/100 μL/well, and were cultured overnight at 37° C. in 5% CO2. The LK2 cells were purchased from Human Science Research Resources Bank. […] The supernatant was discarded, 4% paraformaldehyde was added thereto at 100 μL/well, and the resultant was allowed to stand still at room temperature for 15 minutes. The 4% paraformaldehyde was discarded, and the resultant was washed with PBS-T. A quenching buffer (PBS-T containing 1% H2O2) was added thereto at of 100 μL/well, and the resultant was allowed to stand still at room temperature for 10 minutes. The resultant was washed with PBS-T, a blocking buffer (StartingBlocK T20 (TBS) Blocking Buffer (Thermo […], #37543)) was added thereto at 200 μL/well, and the resultant was allowed to stand still at room temperature for 1 hour. The supernatant was discarded, Acetyl-Histone H3 (Lys27) (D5E4) XP (registered trademark) Rabbit mAb (cell Signaling, #8173) diluted with a blocking buffer was added thereto at 50 μL/well, and the resultant was allowed to stand still at 4° C. overnight. The resultant was washed with PBS-T, Anti-Rabbit IgG-HRP (Cell Signaling, #7074S) diluted with a blocking buffer was added thereto at 50 μL/well, and the resultant was cultured at room temperature for 1 hour. The resultant was washed with PBS-T, SuperSignal (registered trademark) ELISA Pico Chemiluminescent Substrate (Thermo […], #37069) was added thereto at 50 μL/well, and a signal was measured using EnVision.

A further assay concerns the target EP300 (Homo sapiens, UniProt Q09472). Description: Histone acetyltransferase inhibitory activity against EP300 (Test Example 1). In kind it is biochemical. Particulars: 50 ng/mL EP300, 2 μM Acetyl-CoA, 100 nM Histone H4(1-25)-GSGSK (Biotin), 28° C. for 1 hour. The protocol: (§1) [Test Example 1] Evaluation of Histone
(§2) Acetyltransferase Inhibitory Activity against EP300 and CREBBP
(§3) 10 μL each of reaction solutions each containing a different concentration of the compound of each of Examples 1 to 108b (50 mM Tris-HCl (pH8.0), 0.1 mM EDTA, 1 mM dithiothreitol, 0.01% Tween-20, 0.01% Bovine serum albumin, 330 nM trichostatin A, 2 μM Acetyl-CoA (Sigma-Aldrich, #A2056), 100 nM Histone H4(1-25)-GSGSK (Biotin) (Anaspec, #65242-1), 1% dimethyl sulfoxide, 10 to 0.0006 μM of each compound, 50 ng/mL EP300 or 125 ng/mL CREBBP) was added to respective wells of a 384-well plate, and cultured at 28° C. for 1 hour. Thereafter, 5 μL of 30 μM Lys-CoA (Daiichi Sankyo Co., Ltd.) dissolved in LANCE detection buffer (Perkin Elmer Co., Ltd., #CR97-100) was added to each well. Furthermore, 5 μL of LANCE detection buffer containing 2 nM Eu-anti pan-Ac (Perkin Elmer Co., Ltd., #TRF0412) and 50 nM Sta-Ulight (Perkin Elmer Co., Ltd., #TRF0102) was added to each well, and the resultant was cultured at room temperature overnight. EnVision (Perkin Elmer Co., Ltd., Model 2104-0020) was used to measure ULight signals. […] EP300 and CREBBP were produced and purified by Daiichi Sankyo RD Novare Co., Ltd.

A further assay concerns the target CREBBP (Homo sapiens, UniProt Q92793). Description: Histone acetyltransferase inhibitory activity against CREBBP (Test Example 1). Particulars: 125 ng/mL CREBBP, 2 μM Acetyl-CoA, 100 nM Histone H4(1-25)-GSGSK (Biotin), 28° C. for 1 hour. In kind it is biochemical. The procedure: as §1, §2, §3

Sequence of CREBBP (Q92793 whole entry): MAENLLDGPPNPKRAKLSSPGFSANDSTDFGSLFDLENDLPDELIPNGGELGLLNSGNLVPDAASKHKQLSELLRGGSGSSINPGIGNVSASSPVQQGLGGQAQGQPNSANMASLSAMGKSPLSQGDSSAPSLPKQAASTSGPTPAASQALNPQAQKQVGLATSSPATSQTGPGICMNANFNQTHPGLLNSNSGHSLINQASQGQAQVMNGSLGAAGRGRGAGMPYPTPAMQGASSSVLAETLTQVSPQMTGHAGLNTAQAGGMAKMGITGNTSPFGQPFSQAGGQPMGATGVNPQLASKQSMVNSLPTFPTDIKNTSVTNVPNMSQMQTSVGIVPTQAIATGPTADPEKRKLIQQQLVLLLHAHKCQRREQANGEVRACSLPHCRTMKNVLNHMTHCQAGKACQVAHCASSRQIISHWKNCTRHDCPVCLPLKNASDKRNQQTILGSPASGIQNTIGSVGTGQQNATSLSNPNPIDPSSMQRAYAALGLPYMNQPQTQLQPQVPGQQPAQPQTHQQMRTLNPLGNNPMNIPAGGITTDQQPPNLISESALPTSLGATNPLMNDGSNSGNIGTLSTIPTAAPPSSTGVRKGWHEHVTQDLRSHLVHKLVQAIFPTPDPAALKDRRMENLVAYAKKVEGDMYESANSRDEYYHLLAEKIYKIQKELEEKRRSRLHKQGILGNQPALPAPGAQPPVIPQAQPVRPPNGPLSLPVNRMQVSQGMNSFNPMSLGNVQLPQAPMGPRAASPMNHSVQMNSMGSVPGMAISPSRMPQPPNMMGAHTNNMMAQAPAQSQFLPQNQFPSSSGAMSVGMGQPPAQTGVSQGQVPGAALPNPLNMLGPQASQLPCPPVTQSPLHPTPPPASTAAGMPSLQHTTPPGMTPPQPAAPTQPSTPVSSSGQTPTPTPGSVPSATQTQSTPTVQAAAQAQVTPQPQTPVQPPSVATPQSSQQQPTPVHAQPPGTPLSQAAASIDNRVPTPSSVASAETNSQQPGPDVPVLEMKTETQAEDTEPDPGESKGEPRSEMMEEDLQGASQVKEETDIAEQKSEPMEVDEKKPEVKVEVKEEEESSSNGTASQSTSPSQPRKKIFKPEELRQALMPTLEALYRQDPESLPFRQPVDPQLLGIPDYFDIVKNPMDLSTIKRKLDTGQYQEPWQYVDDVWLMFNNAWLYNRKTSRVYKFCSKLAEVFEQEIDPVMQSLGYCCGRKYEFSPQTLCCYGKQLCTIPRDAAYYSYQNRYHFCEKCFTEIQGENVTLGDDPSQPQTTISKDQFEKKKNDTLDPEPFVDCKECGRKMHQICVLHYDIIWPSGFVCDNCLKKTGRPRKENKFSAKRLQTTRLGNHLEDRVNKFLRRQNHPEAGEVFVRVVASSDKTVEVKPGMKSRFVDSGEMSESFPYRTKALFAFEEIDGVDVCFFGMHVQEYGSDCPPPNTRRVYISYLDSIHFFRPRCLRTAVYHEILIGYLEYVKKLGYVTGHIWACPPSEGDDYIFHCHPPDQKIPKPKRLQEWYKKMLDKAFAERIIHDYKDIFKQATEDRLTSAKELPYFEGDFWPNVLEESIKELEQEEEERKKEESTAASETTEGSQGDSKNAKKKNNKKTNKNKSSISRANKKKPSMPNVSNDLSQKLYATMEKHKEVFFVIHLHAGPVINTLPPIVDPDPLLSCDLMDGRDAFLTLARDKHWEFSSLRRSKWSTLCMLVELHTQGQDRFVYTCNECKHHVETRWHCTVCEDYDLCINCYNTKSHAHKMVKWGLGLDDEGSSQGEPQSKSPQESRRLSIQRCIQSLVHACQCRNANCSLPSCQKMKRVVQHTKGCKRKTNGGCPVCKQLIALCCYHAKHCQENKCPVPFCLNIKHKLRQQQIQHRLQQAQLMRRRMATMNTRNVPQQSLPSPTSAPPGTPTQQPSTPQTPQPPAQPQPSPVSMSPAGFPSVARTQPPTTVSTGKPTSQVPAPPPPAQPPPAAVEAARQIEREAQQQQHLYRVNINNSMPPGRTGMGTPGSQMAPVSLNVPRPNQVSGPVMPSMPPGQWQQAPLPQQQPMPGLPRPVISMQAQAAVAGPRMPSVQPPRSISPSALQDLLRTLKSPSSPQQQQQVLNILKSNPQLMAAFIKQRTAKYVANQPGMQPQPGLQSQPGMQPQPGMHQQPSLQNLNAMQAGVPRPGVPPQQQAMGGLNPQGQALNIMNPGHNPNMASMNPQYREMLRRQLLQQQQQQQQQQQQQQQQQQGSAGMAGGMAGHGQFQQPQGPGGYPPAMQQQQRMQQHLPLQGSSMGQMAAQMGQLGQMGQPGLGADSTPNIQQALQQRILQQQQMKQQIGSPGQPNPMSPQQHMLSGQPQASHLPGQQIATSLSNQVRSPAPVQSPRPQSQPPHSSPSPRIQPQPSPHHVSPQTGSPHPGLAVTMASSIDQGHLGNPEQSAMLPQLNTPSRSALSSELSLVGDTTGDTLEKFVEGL
Sequence of EP300 (Q09472 whole entry): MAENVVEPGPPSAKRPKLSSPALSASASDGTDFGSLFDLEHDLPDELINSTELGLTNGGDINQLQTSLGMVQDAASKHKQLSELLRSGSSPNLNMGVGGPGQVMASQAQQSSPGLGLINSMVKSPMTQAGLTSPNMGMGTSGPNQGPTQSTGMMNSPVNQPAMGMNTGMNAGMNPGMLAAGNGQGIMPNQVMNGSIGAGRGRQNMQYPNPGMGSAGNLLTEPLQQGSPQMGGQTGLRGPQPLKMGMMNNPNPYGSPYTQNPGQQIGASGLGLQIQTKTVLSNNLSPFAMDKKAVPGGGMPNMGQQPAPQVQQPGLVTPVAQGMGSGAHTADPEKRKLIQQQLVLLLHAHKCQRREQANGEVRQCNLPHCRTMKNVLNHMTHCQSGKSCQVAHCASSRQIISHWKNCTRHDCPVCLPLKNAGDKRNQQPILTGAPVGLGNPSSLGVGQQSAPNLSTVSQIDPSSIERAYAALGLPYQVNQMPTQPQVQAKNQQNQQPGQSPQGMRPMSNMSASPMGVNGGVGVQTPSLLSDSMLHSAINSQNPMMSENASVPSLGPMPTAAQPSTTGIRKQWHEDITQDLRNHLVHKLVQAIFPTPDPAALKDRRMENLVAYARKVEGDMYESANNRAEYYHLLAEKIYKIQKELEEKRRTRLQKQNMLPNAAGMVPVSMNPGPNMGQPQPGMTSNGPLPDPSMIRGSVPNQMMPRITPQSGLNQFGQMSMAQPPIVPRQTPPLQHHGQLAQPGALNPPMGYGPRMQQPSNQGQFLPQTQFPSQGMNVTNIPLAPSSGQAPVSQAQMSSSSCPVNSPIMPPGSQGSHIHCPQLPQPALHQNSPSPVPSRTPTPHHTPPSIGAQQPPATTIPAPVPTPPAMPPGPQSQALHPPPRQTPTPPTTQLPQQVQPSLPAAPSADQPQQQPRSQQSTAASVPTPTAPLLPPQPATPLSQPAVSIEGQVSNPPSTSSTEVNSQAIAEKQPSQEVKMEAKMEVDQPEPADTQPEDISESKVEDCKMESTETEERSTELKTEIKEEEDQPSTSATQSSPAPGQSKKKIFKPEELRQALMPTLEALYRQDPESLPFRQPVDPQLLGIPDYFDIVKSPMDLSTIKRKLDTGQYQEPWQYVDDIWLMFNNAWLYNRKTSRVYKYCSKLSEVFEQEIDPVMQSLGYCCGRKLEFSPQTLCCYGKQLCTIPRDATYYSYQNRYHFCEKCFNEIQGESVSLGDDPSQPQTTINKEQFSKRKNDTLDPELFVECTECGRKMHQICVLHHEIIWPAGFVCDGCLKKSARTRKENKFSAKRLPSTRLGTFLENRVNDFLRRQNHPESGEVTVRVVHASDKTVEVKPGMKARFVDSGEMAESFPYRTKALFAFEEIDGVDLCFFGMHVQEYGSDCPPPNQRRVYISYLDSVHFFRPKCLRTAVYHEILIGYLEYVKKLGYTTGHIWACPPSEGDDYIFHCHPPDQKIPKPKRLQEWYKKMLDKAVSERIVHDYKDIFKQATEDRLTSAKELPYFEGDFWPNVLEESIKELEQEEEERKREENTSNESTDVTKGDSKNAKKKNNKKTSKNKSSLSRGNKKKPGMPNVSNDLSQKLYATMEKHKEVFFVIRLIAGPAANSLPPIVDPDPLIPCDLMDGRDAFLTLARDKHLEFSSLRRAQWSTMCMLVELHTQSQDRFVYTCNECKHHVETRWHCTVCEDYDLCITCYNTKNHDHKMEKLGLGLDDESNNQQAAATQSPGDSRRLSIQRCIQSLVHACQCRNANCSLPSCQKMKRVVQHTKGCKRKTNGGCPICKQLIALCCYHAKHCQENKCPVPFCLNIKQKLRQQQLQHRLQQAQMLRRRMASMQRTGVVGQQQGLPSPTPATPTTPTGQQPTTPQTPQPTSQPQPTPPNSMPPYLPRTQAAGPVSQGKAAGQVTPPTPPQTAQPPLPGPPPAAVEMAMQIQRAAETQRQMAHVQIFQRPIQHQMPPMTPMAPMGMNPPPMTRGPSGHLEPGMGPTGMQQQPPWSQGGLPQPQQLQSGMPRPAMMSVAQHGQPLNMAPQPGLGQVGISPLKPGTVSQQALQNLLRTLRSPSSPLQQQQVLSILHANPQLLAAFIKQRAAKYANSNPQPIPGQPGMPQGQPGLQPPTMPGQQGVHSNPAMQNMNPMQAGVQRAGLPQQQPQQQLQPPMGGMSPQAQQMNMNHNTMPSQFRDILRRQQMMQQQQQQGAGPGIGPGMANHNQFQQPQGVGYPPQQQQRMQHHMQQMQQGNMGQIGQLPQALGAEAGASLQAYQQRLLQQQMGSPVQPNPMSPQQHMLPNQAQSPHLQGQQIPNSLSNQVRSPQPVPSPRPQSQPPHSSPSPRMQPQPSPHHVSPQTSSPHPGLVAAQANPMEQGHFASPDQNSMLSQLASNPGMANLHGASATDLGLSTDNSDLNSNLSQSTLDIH

A word on the IC50: it is the concentration at which inhibition is half-maximal. For the compound `COc1ccc(C2(C(=O)N3CCC[C@@H]3C(=O)Nc3ccc(O)c(Cl)c3)CCCC2)cc1` [Example 21, N-(3-Chloro-4-hydroxy-phenyl)-1-{[1-(4-methoxyphenyl)cyclopentyl]carbonyl}-D-prolinamide], the IC50 worked out at 458 nM with H3K27Ac, 130 nM against EP300 and 36 nM on CREBBP.
With `COc1ccc(C2(C(=O)N3CCC[C@@H]3C(=O)Nc3cccc4[nH]ccc34)CCCC2)cc1` [Example 16, N-1H-Indol-4-yl-1-{[1-(4-methoxyphenyl)cyclopentyl]carbonyl}-D-prolinamide], the 50% inhibitory concentration (IC50) with H3K27Ac is 304 nM; against EP300, 61 nM; against CREBBP, 95 nM.
With `COc1ccc(C2(C(=O)N3CS(=O)(=O)C[C@@H]3C(=O)Nc3ccc4[nH]ncc4n3)CCCCC2)cc1` [Example 40, (4S)-3-{[1-(4-Methoxyphenyl)cyclohexyl]carbonyl}-N-(1H-pyrazolo[4,3-b]pyridin-5-yl)-1,3-thiazolidin-4-carboxamide 1,1-dioxide], the half-maximal inhibitory concentration (IC50) in the assay with H3K27Ac was determined as 27 nM; on EP300, 22 nM; against CREBBP, 29 nM.
The corresponding values for `N#Cc1ccccc1NC(=O)[C@H]1C[C@@H](F)CN1C(=O)C1(c2ccc(C(=O)O)cc2)CCCC1` [Example 29, 4-[1-({(2R,4R)-2-[(2-Cyanophenyl)carbamoyl]-4-fluoropyrrolidin-1-yl}carbonyl)cyclopentyl] benzoic acid] are 474 nM, 20 nM and 125 nM.
As to `O=C(NS(=O)(=O)C1CC1)c1ccc(C2(C(=O)N3C[C@H](F)C[C@@H]3C(=O)Nc3cccc4[nH]ncc34)CCCCC2)cc1` [Example 36, (4R)-1-[(1-{4-[(Cyclopropylsulfonyl)carbamoyl]phenyl}cyclohexyl)carbonyl]-4-fluoro-N-1H-indazol-4-yl-D-prolinamide], the IC50 in the assay on H3K27Ac was more than 10000 nM; on EP300, 17 nM; on CREBBP it was 23 nM.
As to `COc1ccc(C2(C(=O)N3C[C@H](F)C[C@@H]3C(=O)Nc3ccc4c(n3)NC(=O)CO4)CCCCC2)cc1` [Example 67, (4R)-4-Fluoro-1-{[1-(4-methoxyphenyl)cyclohexyl]carbonyl}-N-(3-oxo-3,4-dihydro-2H-pyrido[3,2-b][1,4]oxazin-6-yl)-D-prolinamide], the IC50 amounted to 2410 nM in the assay on H3K27Ac, 397 nM on EP300 and 678 nM against CREBBP.
The corresponding values for `COc1ccc(C2(C(=O)N3CSC[C@@H]3C(=O)Nc3ccccc3C#N)CCCCC2)cc1` [Example 34, (4S)—N-(2-Cyanophenyl)-3-{[1-(4-methoxyphenyl)cyclohexyl]carbonyl}-1,3-thiazolidine-4-carboxamide] are 307 nM, 40 nM and 39 nM.
The corresponding values for `COc1ccc(C2(C(=O)N3CCC[C@@H]3C(=O)Nc3ccc(OCCN4CCOCC4)cc3C#N)CCCC2)cc1` [Example 23, N-{2-Cyano-4-[2-(morpholin-4-yl)ethoxy]phenyl}-1-{[1-(4-methoxyphenyl)cyclopentyl]carbonyl}-D-prolinamide] are 121 nM, 101 nM and 171 nM.
On the same counts, the results for `COc1ccc(C2(C(=O)N3CCC[C@@H]3C(=O)Nc3ccc4[nH]ccc4c3)CCCC2)cc1` [Example 17, N-1H-Indol-5-yl-1-{[1-(4-methoxyphenyl)cyclopentyl]carbonyl}-D-prolinamide] are 709 nM, 213 nM and 237 nM.
As for `COc1ccc(C2(C(=O)N3C[C@H](O)C[C@@H]3C(=O)Nc3cccc4[nH]ncc34)CCCC2)cc1` [Example 5, (4R)-4-Hydroxy-N-1H-indazol-4-yl-1-{[1-(4-methoxyphenyl)cyclopentyl]carbonyl}-D-prolinamide], the concentration for half-maximal inhibition (IC50) with H3K27Ac amounted to 1030 nM; on EP300, 259 nM; against CREBBP it was 334 nM.
`COc1ccc(C2(C(=O)N3CCC[C@@H]3C(=O)Nc3ccncc3)CCCC2)cc1` [Example 11, 1-{[1-(4-Methoxyphenyl)cyclopentyl]carbonyl}-N-pyridin-4-yl-D-prolinamide]: in the assay on H3K27Ac, the IC50 came out at 8060 nM.
Same read-out and setting: next, `COc1ccc(C2(C(=O)N3CCC[C@@H]3C(=O)Nc3ccc4c(c3)CCC(=O)N4)CCCC2)cc1` [Example 18, l-{[1-(4-Methoxyphenyl)cyclopentyl]carbonyl}-N-(2-oxo-1,2,3,4-tetrahydroquinolin-6-yl)-D-prolinamide]: 3340 nM.
For `COc1ccc(C2(C(=O)N3C[C@](C)(O)C[C@@H]3C(=O)Nc3cccc4[nH]ncc34)CCCC2)cc1` [Example 31, (4R)-4-Hydroxy-N-1H-indazol-4-yl-1-{[1-(4-methoxyphenyl)cyclopentyl]carbonyl}-4-methyl-D-prolinamide], the IC50 in the assay on H3K27Ac is 1550 nM; against EP300, 364 nM; at CREBBP, 652 nM.
For the compound `COc1ccc(C2(C(=O)N3C[C@@H](F)C[C@@H]3C(=O)Nc3cccc4[nH]ncc34)CCCC2)cc1` [Example 7, (4S)-4-Fluoro-N-1H-indazol-4-yl-1-{[1-(4-methoxyphenyl)cyclopentyl]carbonyl}-D-prolinamide], in the assay on H3K27Ac, the IC50 amounted to 8750 nM.
Take `COc1ccc(C2(C(=O)N(C)CC(=O)Nc3cccc4[nH]ncc34)CCCCC2)cc1` [Example 2, N-[2-(1H-Indazol-4-ylamino)-2-oxoethyl]-1-(4-methoxyphenyl)-N-methylcyclohexanecarboxamide]: the IC50 in the assay on H3K27Ac was 1010 nM; at EP300, 193 nM; against CREBBP, 128 nM.
Take `COc1ccc(C2(C(=O)N3CCC[C@@H]3C(=O)Nc3ccc(OCc4ccccc4)cc3)CCCC2)cc1` [Example 12, N-[4-(Benzyloxy)phenyl]-1-{[1-(4-methoxyphenyl)cyclopentyl]carbonyl}-D-prolinamide]: the IC50 in the assay with H3K27Ac is 2580 nM.
For `COc1ccc(C2(C(=O)N3C[C@H](F)C[C@@H]3C(=O)Nc3cccc4[nH]ncc34)CCCCO2)cc1` (stereo partly drawn) [Example 43, (4R)-4-Fluoro-N-1H-indazol-4-yl-1-{[2-(4-methoxyphenyl)tetrahydro-2H-pyran-2-yl]carbonyl}-D-prolinamide], in the assay with H3K27Ac, the IC50 came to 6450 nM.
With `COc1ccc(C2(C(=O)N3CCC[C@@H]3C(=O)Nc3cccc(N)n3)CCCC2)cc1` [Example 15, N-(6-Aminopyridin-2-yl)-1-{[1-(4-methoxyphenyl)cyclopentyl]carbonyl}-D-prolinamide], the IC50 in the assay with H3K27Ac amounted to 908 nM; against EP300, 218 nM; on CREBBP, 353 nM.
Consider `CNc1cccc(NC(=O)[C@H]2CCCN2C(=O)C2(c3ccc(OC)cc3)CCCC2)n1` [Example 30, 1-{[1-(4-Methoxyphenyl)cyclopentyl]carbonyl}-N-[6-(methylamino)pyridin-2-yl)-D-prolinamide], for which the IC50 with H3K27Ac worked out at 577 nM; against EP300 it was 182 nM; against CREBBP, 233 nM.
On to `COc1ccc(C2(C(=O)N3C[C@H](OC)C[C@@H]3C(=O)Nc3cccc4[nH]ncc34)CCCC2)cc1` [Example 6, (4R)—N-1H-Indazol-4-yl-4-methoxy-1-{[1-(4-methoxyphenyl)cyclopentyl]carbonyl}-D-prolinamide], for which the IC50 in the assay on H3K27Ac is 9640 nM.
Turning to `COc1ccc(C2(C(=O)N3CCC[C@@H]3C(=O)Nc3ccc4[nH]c(=O)[nH]c4c3)CCCC2)cc1` [Example 19, l-{[1-(4-Methoxyphenyl)cyclopentyl]carbonyl}-N-(2-oxo-2,3-dihydro-1H-benzimidazol-5-yl)-D-prolinamide], the IC50 was determined as 1050 nM with H3K27Ac, 171 nM at EP300 and 169 nM at CREBBP.
